SMILES strings stand for the structures. pIC50: −log10 of the molar value.

One experiment has as its target T1, BCL-2 (Homo sapiens, UniProt P10415).
T1 construct: purchased Cisbio 63ADK000CB01PEG
In words: HTRF BCL-2/BAK assay (Cisbio). Conditions: recombinant human Tag1-BCL-2 2 nM, Tag2-BAK 10 nM. In kind it is binding. The protocol: (§1) Then the pre-mixed anti-Tag1-Eu^3+ and anti-tag2-XL665 were added to the plate and further incubated at room temperature for another 2 hours. The signals ([…]) were read on Envision 2104 instrument. The IC50 for each compound was derived from fitting the signal of 665/615 nM to the increasing compound concentration.
(§2) Using the above assays, the following compounds were tested.

A further experiment has as its target T2, BCL-XL (Homo sapiens, UniProt Q07817).
T2 construct: purchased Cisbio 63ADK000CB04PEG
In words: HTRF BCL-XL/BAK assay (Cisbio). The experiment is classed as binding. The note with it: recombinant human Tag1-BCL-XL 2 nM, Tag2-BAK 5 nM. As for the experimental part:
as §1, §2

The test system of another experiment is DOHH2 cells. The experiment in a line: CellTiter-Glo cell proliferation assay, DOHH2 cells. In kind it is cell-based. The note with it: Homo sapiens, DOHH-2, 72 hours. In outline: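 DOHH2 cells seeded in DMEM + 10% FBS, exposed to serially diluted compound for 72 h at 37 °C, 5% CO2. Viability read by CellTiter-Glo luminescence; GI50 calculated.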
(In general: In ATP-based viability assays light output follows the ATP content of the culture.)

T2 sequence (Q07817 whole entry): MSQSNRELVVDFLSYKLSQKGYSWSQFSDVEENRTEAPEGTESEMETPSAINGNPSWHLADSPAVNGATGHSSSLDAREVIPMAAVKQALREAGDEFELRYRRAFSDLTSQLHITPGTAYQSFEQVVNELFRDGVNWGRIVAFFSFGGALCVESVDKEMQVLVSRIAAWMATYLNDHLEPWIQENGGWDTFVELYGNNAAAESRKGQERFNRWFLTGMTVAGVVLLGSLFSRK
T1 sequence (P10415 whole entry): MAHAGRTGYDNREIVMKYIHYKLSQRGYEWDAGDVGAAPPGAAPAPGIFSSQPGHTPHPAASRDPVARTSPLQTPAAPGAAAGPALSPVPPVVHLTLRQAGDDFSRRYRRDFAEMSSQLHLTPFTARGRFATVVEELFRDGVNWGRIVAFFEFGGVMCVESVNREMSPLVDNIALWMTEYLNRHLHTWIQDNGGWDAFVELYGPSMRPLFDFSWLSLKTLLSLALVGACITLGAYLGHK

For `O=C(NS(=O)(=O)c1ccc(NCCN2CCC3(CC2)COC3)c([N+](=O)[O-])c1)c1ccc(N2CCN([C@@H]3CCCCc4c(Br)cccc43)CC2)cc1Oc1cnc2[nH]ccc2c1` [Compound 68, (R)-2-((1H-pyrrolo[2,3-b]pyridin-5-yl)oxy)-N-((4-((2-(2-oxa-7-azaspiro[3.5]nonan-7-yl)ethyl)amino)-3-nitrophenyl)sulfonyl)-4-(4-(1-bromo-6,7,8,9-tetrahydro-5H-benzo[7]annulen-5-yl)piperazin-1-yl)benzamide], the pIC50 on BCL-2 and at BCL-XL was above 7.70 each time. For the same molecule, the GI50 – broadly, the concentration giving 50% growth inhibition – in the experiment with DOHH2 cells is below 0.05 µM.

With `O=C(NS(=O)(=O)c1ccc(NCC2CCOCC2)c([N+](=O)[O-])c1)c1ccc(N2CCN(C3CCCCc4ccc(F)cc43)CC2)cc1Oc1cnc2[nH]ccc2c1` (stereo not drawn) [Compound 37, 2-((1H-pyrrolo[2,3-b]pyridin-5-yl)oxy)-4-(4-(3-fluoro-6,7,8,9-tetrahydro-5H-benzo[7]annulen-5-yl)piperazin-1-yl)-N-((3-nitro-4-(((tetrahydro-2H-pyran-4-yl)methyl)amino)phenyl)sulfonyl)benzamide], the pIC50 (usually the negative decadic logarithm of the IC50, by convention in mol/L) at BCL-2 is above 7.70; on BCL-XL, 5.70 to 6.70. The molecule further registered a GI50 with DOHH2 cells of 0.05 to 0.5 µM.

Turning to `CC1(C)CC(CNc2ccc(S(=O)(=O)NC(=O)c3ccc(N4CCN([C@@H]5CCCCc6c(Cl)cccc65)CC4)cc3Oc3cnc4[nH]ccc4c3)cc2[N+](=O)[O-])CCO1` (stereo partly drawn) [Compound 102, 2-((1H-pyrrolo[2,3-b]pyridin-5-yl)oxy)-4-(4-((R)-1-chloro-6,7,8,9-tetrahydro-5H-benzo[7]annulen-5-yl)piperazin-1-yl)-N-((4-(((2,2-dimethyltetrahydro-2H-pyran-4-yl)methyl)amino)-3-nitrophenyl)sulfonyl)benzamide], the results for the pIC50 on BCL-2 and at BCL-XL were above 7.70 and 6.70 to 7.70, respectively. Also, the GI50 in the experiment with DOHH2 cells is below 0.05 µM.

With `O=C(NS(=O)(=O)c1ccc(NCC2CCOCC2)c([N+](=O)[O-])c1)c1ccc(N2CCN([C@@H]3CCCCc4c(Cl)cc(F)cc43)CC2)cc1Oc1cnc2[nH]ccc2c1` [Compound 87, (R)-2-((1H-pyrrolo[2,3-b]pyridin-5-yl)oxy)-4-(4-(1-chloro-3-fluoro-6,7,8,9-tetrahydro-5H-benzo[7]annulen-5-yl)piperazin-1-yl)-N-((3-nitro-4-(((tetrahydro-2H-pyran-4-yl)methyl)amino)phenyl)sulfonyl)benzamide], the pIC50 is above 7.70 on BCL-2 and 6.70 to 7.70 at BCL-XL. Also, the GI50 with DOHH2 cells was below 0.05 µM.

Turning to `CC(C)[C@H](N)C(=O)N1CCC2(CC1)CC(CNc1ccc(S(=O)(=O)NC(=O)c3ccc(N4CCN([C@@H]5CCCCc6c(Cl)cccc65)CC4)cc3Oc3cnc4[nH]ccc4c3)cc1[N+](=O)[O-])C2` [Compound 125, 2-((1H-pyrrolo[2,3-b]pyridin-5-yl)oxy)-N-((4-(((7-(L-valyl)-7-azaspiro[3.5]nonan-2-yl)methyl)amino)-3-nitrophenyl)sulfonyl)-4-(4-((R)-1-chloro-6,7,8,9-tetrahydro-5H-benzo[7]annulen-5-yl)piperazin-1-yl)benzamide], the pIC50 at BCL-2 and on BCL-XL was above 7.70 throughout. In the experiment with DOHH2 cells, this molecule gave a GI50 below 0.05 µM.

`O=C(NS(=O)(=O)c1cccc([N+](=O)[O-])c1)c1ccc(N2CCN(C3CCCc4cccc(-c5ccc(Cl)cc5)c43)CC2)cc1Oc1cnc2[nH]ccc2c1` (stereo not drawn) [Compound 13, 2-((1H-pyrrolo[2,3-b]pyridin-5-yl)oxy)-4-(4-(8-(4-chlorophenyl)-1,2,3,4-tetrahydronaphthalen-1-yl)piperazin-1-yl)-N-((3-nitrophenyl)sulfonyl)benzamide]: the results for the pIC50 on BCL-2 and at BCL-XL were 6.70 to 7.70 and 5.70 to 6.70, respectively. For the same molecule, the GI50 in the experiment with DOHH2 cells was in the range of 0.5 to 5 µM.

On to `CCP(=O)(CC)c1cccc2c1CCCCC2N1CCN(c2ccc(C(=O)NS(=O)(=O)c3ccc(NCC4CCOCC4)c([N+](=O)[O-])c3)c(Oc3cnc4[nH]ccc4c3)c2)CC1` (stereo not drawn) [Compound 62, 2-((1H-pyrrolo[2,3-b]pyridin-5-yl)oxy)-4-(4-(1-(diethylphosphoryl)-6,7,8,9-tetrahydro-5H-benzo[7]annulen-5-yl)piperazin-1-yl)-N-((3-nitro-4-(((tetrahydro-2H-pyran-4-yl)methyl)amino)phenyl)sulfonyl)benzamide], for which the values for the pIC50 on BCL-2 and at BCL-XL were 6.70 to 7.70 and below 5.70, respectively. This molecule had a GI50 in the experiment with DOHH2 cells above 5 µM.

With `O=C(NS(=O)(=O)c1ccc(NCC2CCOCC2)c([N+](=O)[O-])c1)c1ccc(N2CCN(C3CCCCc4c(Br)cccc43)CC2)cc1Oc1cnc2[nH]ccc2c1` (stereo not drawn) [Compound 18, 2-((1H-pyrrolo[2,3-b]pyridin-5-yl)oxy)-4-(4-(1-bromo-6,7,8,9-tetrahydro-5H-benzo[7]annulen-5-yl)piperazin-1-yl)-N-((3-nitro-4-(((tetrahydro-2H-pyran-4-yl)methyl)amino)phenyl)sulfonyl)benzamide], the pIC50 was above 7.70 at BCL-2 and 6.70 to 7.70 at BCL-XL. This molecule also gave a GI50 in the experiment with DOHH2 cells below 0.05 µM.

Take `O=C(NS(=O)(=O)c1ccc(NCC2COC3OCCC23)c([N+](=O)[O-])c1)c1ccc(N2CCN(C3CCCCc4c(Cl)cccc43)CC2)cc1Oc1cnc2[nH]ccc2c1` (stereo not drawn) [Compound 64, 2-((1H-pyrrolo[2,3-b]pyridin-5-yl)oxy)-4-(4-(1-chloro-6,7,8,9-tetrahydro-5H-benzo[7]annulen-5-yl)piperazin-1-yl)-N-((4-(((hexahydrofuro[2,3-b]furan-3-yl)methyl)amino)-3-nitrophenyl)sulfonyl)benzamide]: the results for the pIC50 on BCL-2 and on BCL-XL were above 7.70 and 6.70 to 7.70, respectively. Besides, the GI50 in the experiment with DOHH2 cells is 0.05 to 0.5 µM.

For `O=C(NS(=O)(=O)c1ccc(NCC2CCC3(CC2)COC3)c([N+](=O)[O-])c1)c1ccc(N2CCN([C@@H]3CCCCc4c(Br)cccc43)CC2)cc1Oc1cnc2[nH]ccc2c1` [Compound 67, (R)-2-((1H-pyrrolo[2,3-b]pyridin-5-yl)oxy)-N-((4-(((2-oxaspiro[3.5]nonan-7-yl)methyl)amino)-3-nitrophenyl)sulfonyl)-4-(4-(1-bromo-6,7,8,9-tetrahydro-5H-benzo[7]annulen-5-yl)piperazin-1-yl)benzamide], the results for the pIC50 at BCL-2 and at BCL-XL were above 7.70 and 6.70 to 7.70, respectively. In the experiment on DOHH2 cells, the GI50 is below 0.05 µM.

With `O=C(NS(=O)(=O)c1ccc(NCC2CCn3ccnc3C2)c([N+](=O)[O-])c1)c1ccc(N2CCN(C3CCCCc4c(Cl)cccc43)CC2)cc1Oc1cnc2[nH]ccc2c1` (stereo not drawn) [Compound 53, 2-((1H-pyrrolo[2,3-b]pyridin-5-yl)oxy)-4-(4-(1-chloro-6,7,8,9-tetrahydro-5H-benzo[7]annulen-5-yl)piperazin-1-yl)-N-((3-nitro-4-(((5,6,7,8-tetrahydroimidazo[1,2-a]pyridin-7-yl)methyl)amino)phenyl)sulfonyl)benzamide], the pIC50 on BCL-2 and on BCL-XL was above 7.70 in each case. Also, the GI50 with DOHH2 cells lay within 0.05 to 0.5 µM.

Take `O=C(NS(=O)(=O)c1ccc(NCC2CCN(C3COC3)CC2)c([N+](=O)[O-])c1)c1ccc(N2CCN([C@@H]3CCCCc4c(Cl)cccc43)CC2)cc1Oc1cnc2[nH]ccc2c1` [Compound 83, (R)-2-((1H-pyrrolo[2,3-b]pyridin-5-yl)oxy)-4-(4-(1-chloro-6,7,8,9-tetrahydro-5H-benzo[7]annulen-5-yl)piperazin-1-yl)-N-((3-nitro-4-(((1-(oxetan-3-yl)piperidin-4-yl)methyl)amino)phenyl)sulfonyl)benzamide]: the pIC50 at BCL-2 and at BCL-XL was above 7.70 in each case. The molecule further returned a GI50 in the experiment on DOHH2 cells below 0.05 µM.

Turning to `O=C(NS(=O)(=O)c1cccc([N+](=O)[O-])c1)c1ccc(N2CCN(C3CCCCc4ccccc43)CC2)cc1Oc1cnc2[nH]ccc2c1` (stereo not drawn) [Compound 5, 2-((1H-pyrrolo[2,3-b]pyridin-5-yl)oxy)-N-((3-nitrophenyl)sulfonyl)-4-(4-(6,7,8,9-tetrahydro-5H-benzo[7]annulen-5-yl)piperazin-1-yl)benzamide], the pIC50 on BCL-2 was 6.70 to 7.70; on BCL-XL, 5.70 to 6.70. The GI50 with DOHH2 cells is 0.5 to 5 µM.

Consider `CS(=O)(=O)Nc1cccc2c1CCCCC2N1CCN(c2ccc(C(=O)NS(=O)(=O)c3ccc(NCC4CCOCC4)c([N+](=O)[O-])c3)c(Oc3cnc4[nH]ccc4c3)c2)CC1` (stereo not drawn) [Compound 56, 2-((1H-pyrrolo[2,3-b]pyridin-5-yl)oxy)-4-(4-(1-(methylsulfonamido)-6,7,8,9-tetrahydro-5H-benzo[7]annulen-5-yl)piperazin-1-yl)-N-((3-nitro-4-(((tetrahydro-2H-pyran-4-yl)methyl)amino)phenyl)sulfonyl)benzamide], for which the pIC50 was 6.70 to 7.70 on BCL-2 and below 5.70 at BCL-XL. In addition, the GI50 with DOHH2 cells was above 5 µM.

`NCCN1CCC2(CC1)CC(CNc1ccc(S(=O)(=O)NC(=O)c3ccc(N4CCN([C@@H]5CCCCc6c(Cl)cccc65)CC4)cc3Oc3cnc4[nH]ccc4c3)cc1[N+](=O)[O-])C2` [Compound 110, (R)-2-((1H-pyrrolo[2,3-b]pyridin-5-yl)oxy)-N-((4-(((7-(2-aminoethyl)-7-azaspiro[3.5]nonan-2-yl)methyl)amino)-3-nitrophenyl)sulfonyl)-4-(4-(1-chloro-6,7,8,9-tetrahydro-5H-benzo[7]annulen-5-yl)piperazin-1-yl)benzamide]: the pIC50 on BCL-2 and on BCL-XL was above 7.70 in each case. For the same molecule, the GI50 with DOHH2 cells was below 0.05 µM.

With `O=C(NS(=O)(=O)c1ccc(NCC2CC3(CCNCC3)C2)c([N+](=O)[O-])c1)c1ccc(N2CCN([C@@H]3CCCCc4c(Cl)cccc43)CC2)cc1` [Compound 117, (R)-N-((4-(((7-azaspiro[3.5]nonan-2-yl)methyl)amino)-3-nitrophenyl)sulfonyl)-4-(4-(1-chloro-6,7,8,9-tetrahydro-5H-benzo[7]annulen-5-yl)piperazin-1-yl)benzamide], the pIC50 on BCL-2 and at BCL-XL was 6.70 to 7.70 throughout. This molecule also showed a GI50 in the experiment with DOHH2 cells above 5 µM.
